In patent US20220125900A1, “NEOANTIGENS IN CANCER” (priority 2019, published 2022):

Test system: IFNγ response of splenocytes
Assay: IFNγ ELISpot assay on splenocytes of vaccinated Balb/c mice
Type: in vivo
Conditions: splenocytes of mice vaccinated with Ancer-selected CT26 Neoantigen Peptides+Poly-ICLC, stimulated overnight; positive = >50 SFC/million over background and stimulation index >2-fold
Excerpt: Balb/c mice were separated into three groups: A) Vehicle control; B) Ancer™-selected CT26 Neoantigen Peptides+adjuvant; C) Ancer™-selected CT26 Neoantigen Peptides+JANUSMATRIX™ MHC class II selected peptides+adjuvant. All vaccines were formulated with the addition of the adjuvant Poly-ICLC. Poly-ICLC, also known as Hiltonol, is a synthetic double-stranded RNA (dsRNA) agonist for pattern recognition receptors (PRRs), and TLR3 agonist. Groups A, B, and C received an initial vaccination with subsequent boosts of vaccine at 2- and 4-weeks post initial vaccination. All mice are sacrificed at 7-10 days after the final boost and spleens were harvested for splenocyte isolation and IFNγ ELISpot assay.
Group A: 50 ug Poly-ICLC in 200 uL
Group B: 20 Ancer™-selected CT26 Neoantigen Peptides at 5 ug/peptide, 100 ug total peptide, 50 ug Poly-ICLC, 200 uL […]
Isolated splenocytes were plated and stimulated with Ancer™-selected CT26 Neoantigen Peptides (CT26 pool), JANUSMATRIX™ selected peptides (CT26-Treg_pool), class I peptide pool, as well as individual Ancer™-selected CT26 Neoantigen peptide CT26-1 (CT26_peptide 1) and CT26-20 ([…]). Plates were incubated overnight and then read. […] Statistical significance was determined by Student's T-test; per mouse—antigen vs. no antigen stimulus, as well as group comparisons (p<0.05).

Substance: Ac-LQARLTSYETLK-NH2 [CT26-1]
- epitope-specific IFNγ response on recall stimulation (immunogenic): significant epitope-specific IFNγ response
